Experiment [1] relates to OD1+OD2 duplex DNA. Kind of experiment: Strand scission of duplex-forming OD1+OD2 with MPA, PAGE. The format is biochemical. Here is the method: (§1) FIG. 3 is an autoradiogram of a 20% polyacrylamide denaturing gel (7 M urea) showing cleavage products of 100 nM 5′-^32P-labeled OD1 incubated with a compound of formula I and MPA (3-mercaptopropionic acid) for 15 minutes in sodium phosphate (10 mM, pH 7.5) at ambient temperature. Lane 1 depicts OD1 alone. Lane 2 depicts OD1 with 5 μM formula I. Lane 3 depicts OD1 with 5 mM MPA. Lane 4-6 depict 0.5, 1, and 5 μM formula I with 5 mM MPA and OD1. Lane 7 depicts OD1+OD2 with 10 μM formula 1 and 5 mM MPA. Lane 8 depicts A+G sequencing lane.
(§2) A hairpin forming oligonucleotide (OD1) (SEQ ID NO. 2) (see FIG. 1) was treated with a compound of formula I in the presence of excess MPA and it was then quenched with dithiocarbamic acid. […] Selectivity was reduced to 66% if the concentration of the compound of formula I is increased 10-fold to 5 μm, due in part to an increase in reactivity primarily at A9, T10 and T21 (FIG. 3, lane 6). In the absence of either the thiol or the compound of formula I, no cleavage of OD1 was observed (FIG. 3, lanes 2 and 3). In addition, there was no enhancement of reaction at A9, T10 or T21. […] The persistent specificity for A22 when OD2 is present was likely due to residual hairpin formed in competition with duplex DNA.

For experiment [2], the system named is hairpin forming oligonucleotide (OD1). The experiment can be described thus: Strand scission of 5'-32P-labeled hairpin oligonucleotide OD1 with MPA, PAGE / phosphorimage analysis. The format is biochemical. The procedure: as §1
as §2, with “DNA. […]” for “DNA.”

Regarding `[Cu+2].c1cnc2c(c1)ccc1cccnc12.c1cnc2c(c1)ccc1cccnc12` [Cu(OP)2^2+, bis(1,10-phenanthroline)copper], the “A22 as target of reaction” value in experiment [1] and in experiment [2] was “not a major target” in each case.

Values taken from patent US20050026897A1, “Trinuclear copper-based compound and ligand for nucleic acid scission and anticancer treatment” (priority 2001, published 2005).
